Assay [1] relates to Cell membrane. In words: Binding affinity to membrane of Propionibacterium acnes ATCC 6919 at 10 uM after 1 hr by fluorescence microscopy under anaerobic condition. The following applies: Cutibacterium acnes, Plasma membrane. The format is functional.
Assay [2] relates to Cell membrane. The assay is described as follows: Binding affinity to membrane of Propionibacterium acnes ATCC 6919 at 1 uM after 1 hr by fluorescence microscopy under anaerobic condition. The format is functional. The following applies: Cutibacterium acnes, Plasma membrane.
The next assay concerns Porphyromonas gingivalis. The assay is described as follows: Binding affinity to membrane of Porphyromonas gingivalis ATCC 33277 at 10 uM after 1 hr by fluorescence microscopy under anaerobic condition. The format is functional.
Assay [3] concerns Cutibacterium acnes. The assay is described as follows: Antibacterial activity against Propionibacterium acnes assessed as attenuation of colonization at 1 uM incubated with compound for 3 hrs measured after 2 days. The format is functional, organism-based.
The test system of assay [4] is Cutibacterium acnes. The assay is described as follows: Antibacterial activity against Propionibacterium acnes assessed as attenuation of colonization at 10 uM incubated with compound for 3 hrs measured after 2 days. The format is functional, organism-based.
Assay [5] relates to Cutibacterium acnes. The assay is described as follows: Antibacterial activity against Propionibacterium acnes assessed as attenuation of colonization at 100 uM incubated with compound for 3 hrs measured after 2 days. The format is functional, organism-based.

Molecules are shown by their SMILES. Calls of active or inactive are those of the source. The rule behind the calls is not given here. Residues, ends and D or L forms follow the SMILES beside them.

For `N=C(N)NCCC[C@H](NC(=O)[C@H](CCCCN)NC(=O)CNC(=O)[C@@H](N)CS)C(=O)N[C@@H](CCCCN)C(=O)O` (H-CGKRK-OH), in the assay on Cell membrane [1], the outcome was inactive.
On to `N=C(N)NCCC[C@H](NC(=O)CNC(=O)CNC(=O)[C@H](CCC(N)=O)NC(=O)[C@@H]1CCCN1C(=O)[C@@H]1CCCN1C(=O)[C@@H]1CCCN1C(=O)CN)C(=O)N1CCC[C@H]1C(=O)N[C@@H](CCC(N)=O)C(=O)O` (H-GPPPQGGRPQ-OH), for which the outcome in the assay with Cell membrane [2], with Cell membrane [1], in the assay on Cutibacterium acnes [3], with Cutibacterium acnes [4] and in the assay on Cutibacterium acnes [5] was Active. In addition, in the assay on Porphyromonas gingivalis, the result was inactive.

The record behind these values is ChEMBL document CHEMBL1255316, “A peptide with a ProGln C terminus in the human saliva peptidome exerts bactericidal activity against Propionibacterium acnes” (Antimicrob Agents Chemother, 2008).
